≈ marks a conversion by molar mass, not a printed value. Read-outs that look alike come from different tables or passages of the source.
Experiments:
S. aureus ATCC 13709 = experiment: MIC, S. aureus ATCC 13709; type: cell-based; conditions: Staphylococcus aureus
hERG = target: T1, hERG (Homo sapiens, UniProt Q12809); experiment: Cerep automated patch-clamp hERG assay, Chinese Hamster Ovary K1 cells; type: cell-based; conditions: for IC50: Table 19, automated patch-clamp, CHO K1 cells, tail current
T1 construct: host or cells: Chinese Hamster Ovary K1 cells
T1 sequence (Q12809 whole entry): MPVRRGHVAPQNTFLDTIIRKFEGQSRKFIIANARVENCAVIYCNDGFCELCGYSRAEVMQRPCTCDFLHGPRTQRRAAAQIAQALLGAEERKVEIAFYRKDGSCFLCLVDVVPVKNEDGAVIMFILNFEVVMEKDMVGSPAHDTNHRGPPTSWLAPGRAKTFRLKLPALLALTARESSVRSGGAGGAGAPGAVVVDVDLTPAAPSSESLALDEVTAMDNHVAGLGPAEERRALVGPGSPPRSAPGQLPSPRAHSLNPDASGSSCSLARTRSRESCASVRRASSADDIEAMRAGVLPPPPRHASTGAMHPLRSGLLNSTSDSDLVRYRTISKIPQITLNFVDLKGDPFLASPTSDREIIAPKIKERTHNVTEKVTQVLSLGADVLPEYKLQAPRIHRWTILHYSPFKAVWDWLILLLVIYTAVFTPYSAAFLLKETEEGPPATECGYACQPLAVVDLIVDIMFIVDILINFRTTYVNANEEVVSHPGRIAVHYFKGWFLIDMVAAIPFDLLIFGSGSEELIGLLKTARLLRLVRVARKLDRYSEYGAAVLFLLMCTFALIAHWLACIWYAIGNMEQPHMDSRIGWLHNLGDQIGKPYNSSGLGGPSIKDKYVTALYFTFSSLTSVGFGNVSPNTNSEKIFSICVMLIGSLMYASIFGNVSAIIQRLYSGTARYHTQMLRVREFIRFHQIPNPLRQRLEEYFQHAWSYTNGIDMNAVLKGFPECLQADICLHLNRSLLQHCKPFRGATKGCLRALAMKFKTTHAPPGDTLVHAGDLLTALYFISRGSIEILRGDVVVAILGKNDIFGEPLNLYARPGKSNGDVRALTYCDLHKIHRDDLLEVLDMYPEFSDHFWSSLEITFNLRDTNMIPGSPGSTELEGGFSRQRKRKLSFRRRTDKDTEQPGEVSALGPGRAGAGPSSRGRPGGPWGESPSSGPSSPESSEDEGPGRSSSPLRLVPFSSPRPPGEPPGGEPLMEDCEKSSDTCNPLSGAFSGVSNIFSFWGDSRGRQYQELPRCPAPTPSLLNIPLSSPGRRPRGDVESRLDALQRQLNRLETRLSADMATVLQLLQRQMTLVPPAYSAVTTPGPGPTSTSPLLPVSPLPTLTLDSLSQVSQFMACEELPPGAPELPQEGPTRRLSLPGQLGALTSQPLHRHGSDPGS
Method: A Cerep automated patch-clamp assay using Chinese Hamster Ovary K1 cells was used to measure hERG IC50 values. The degree of inhibition (%) was obtained by measuring the tail current amplitude, which is induced by a one second test pulse to −40 mV after a two second pulse to +20 mV, before and after drug incubation (the difference in current was normalized to control and multiplied by 100 to obtain the percent inhibition).
Concentration (log) response curves were fitted to a logistic equation (three parameters assuming complete block of the current at very high test compound concentrations) to generate estimates of the 50% inhibitory concentration (IC50). The concentration-response relationship of each compound was constructed from the percentage reductions of current amplitude by sequential concentrations. The hERG IC50 values are provided in Table 19 below for the compounds tested.

E. coli ATCC 25922 = experiment: MIC, E. coli ATCC 25922; type: cell-based; conditions: Escherichia coli
[1] = amide bond, BOP/Et3N then EDC, DCM/NMP 1:1, 40.0 °C
[2] = test system: K. pneumoniae ATCC 700603; experiment: MIC, K. pneumoniae ATCC 700603; type: cell-based; conditions: Klebsiella pneumoniae, ATCC700603
P. aeruginosa ATCC 15692 = experiment: MIC, P. aeruginosa ATCC 15692; type: cell-based; conditions: Pseudomonas aeruginosa, ATCC15692
[3] = test system: F. tularensis holarctica LVS; experiment: microbe, parasite or virus in culture; type: cell-based; conditions: Francisella tularensis, read-out: Ft MIC
A. baumannii ATCC 19606 = experiment: MIC, A. baumannii ATCC 19606; type: cell-based; conditions: Acinetobacter baumannii, ATCC19606
[4] = test system: B. thailandensis ATCC E264; experiment: microbe, parasite or virus in culture; type: cell-based; conditions: Burkholderia thailandensis, ATCCE264, read-out: Bt MIC
S. pneumoniae ATCC 51916 = experiment: MIC, S. pneumoniae ATCC 51916; type: cell-based; conditions: Streptococcus pneumoniae, ATCC51916
Bp = experiment: organism not typed; type: cell-based; conditions: read-out: Bp MIC
[5] = ATCC13709, S. aureus, Alamar Blue read after overnight incubation at 35° C., read-out: MIC Sa
[6] = ATCC25922, E. coli, Alamar Blue read after overnight incubation at 35° C., read-out: MIC Ec

CNc1cc(F)cc2c1[nH]c1nc(Oc3cnc([C@@H](C)O)nc3)nc(N3C[C@H]4C[C@@H]3C[C@H]4N)c12 [Compound 4.408]
MIC (S. aureus ATCC 13709; [5]): ≤ 0.5 µg/mL | IC50 (hERG): 6.4 µM | MIC (E. coli ATCC 25922; [6]): ≤ 0.5 µg/mL

CNc1cc(F)cc2c1[nH]c1nc3nc(c12)N([C@H](CN)COCCCN)C(=O)CSc1ncc(cn1)O3
ring closure, yield after HPLC ([1]; from CNc1cc(F)cc2c1[nH]c1nc(Oc3cnc(SCC(=O)O)nc3)nc(N[C@H](CN)COCCCN)c12, 38.5 mM): 57%

CN(C(=O)OC(C)(C)C)c1cc(F)cc2c1[nH]c1nc3nc(c12)NCCCCNC(=O)CSc1ncc(cn1)O3
ring closure, yield after HPLC ([1]; from CN(C(=O)OC(C)(C)C)c1cc(F)cc2c1[nH]c1nc(Oc3cnc(SCC(=O)O)nc3)nc(NCCCCN)c12, 17-membered ring, 36.5 mM): 34%

2-((5-((4-(6-aminohexyl)amino)-8-((tert-butoxycarbonyl)(methyl)amino)-6-fluoro-9H-pyrimido[4,5-b]indol-2-yl)oxy)pyrimidin-2-yl)thio)acetic acid
ring closure, yield after HPLC ([1]; the molecule shown is the open-chain precursor, 19-membered ring, 30.0 mM): 72%

CNc1cc(F)c(F)c2c1[nH]c1nc(Oc3cnc([C@@H](C)O)nc3)nc(N3C[C@H]4C[C@@H]3C[C@H]4N)c12 [Compound 9.1]
MIC ([2]; Table 20, read-out: Kpn MIC): 4 µg/mL (≈ 8.29 µM) | MIC (P. aeruginosa ATCC 15692; Table 20, read-out: Pa MIC): 2 µg/mL (≈ 4.15 µM) | MIC [3]: 0.5 µg/mL (≈ 1.04 µM) | MIC (A. baumannii ATCC 19606; Table 20, read-out: Ab MIC): 1 µg/mL (≈ 2.07 µM) | MIC (S. aureus ATCC 13709; ATCC13709, Table 20, read-out: Sa MIC): ≤ 0.5 µg/mL | MIC [4]: 0.5 µg/mL (≈ 1.04 µM) | IC50 (hERG): 80 to 100 µM | selectivity in the hERG assay (hERG; compared with previous compounds in the series): significantly more selective | MIC (S. pneumoniae ATCC 51916; Table 20, read-out: Spn MIC): ≤ 0.5 µg/mL | MIC (Bp): 0.5 µg/mL (≈ 1.04 µM) | MIC (E. coli ATCC 25922; ATCC25922, Table 20, read-out: Ec MIC): ≤ 0.5 µg/mL

CNc1cc(F)cc2c1[nH]c1nc(Oc3cnc(C(C)O)nc3)nc(N3CC4C[C@@H](N)C4C3)c12 (stereo partly drawn) [Compound 4.409]
MIC ([2]; Table 10, Kpn = K. pneumoniae): 4 µg/mL (≈ 8.61 µM) | MIC (P. aeruginosa ATCC 15692; Table 10, Pa = P. aeruginosa): 1 µg/mL (≈ 2.15 µM) | MIC (A. baumannii ATCC 19606; Table 10, Ab = A. baumannii, strain not stated): 1 µg/mL (≈ 2.15 µM) | MIC (S. aureus ATCC 13709; [5]): ≤ 0.5 µg/mL | MIC (S. aureus ATCC 13709; ATCC13709, Table 10, Sa = S. aureus, read-out: Sa MIC): ≤ 0.5 µg/mL | IC50 (hERG): 7.5 µM | MIC (S. pneumoniae ATCC 51916; Table 10, Spn = S. pneumoniae): ≤ 0.5 µg/mL | MIC (E. coli ATCC 25922; [6]): ≤ 0.5 µg/mL | MIC (E. coli ATCC 25922; ATCC25922, Table 10, Ec = E. coli, strain not stated, read-out: Ec MIC): ≤ 0.5 µg/mL

5-((4-(6-aminohexyl)amino)-8-((tert-butoxycarbonyl)(methyl)amino)-6-fluoro-9H-pyrimido[4,5-b]indol-2-yl)oxy)nicotinic acid
ring closure, yield after HPLC ([1]; the molecule shown is the open-chain precursor, 16-membered ring, 18.5 mM): 74%

— patent publication US10865216B2, “Tricyclic Gyrase inhibitors” (MERCK SHARP & DOHME CORP., priority 2012, dated 2020)
